Measured values: PubChem BioAssay (NCI)
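Protocol summary: plate cells (96-well), add compound at 5 concentrations, incubate 48 h, interpolate endpoints linearly. Here, GI50 denotes the concentration required for 50% inhibition of growth. TGI is the concentration that stops growth completely.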

Assays:
Assay in all cases: inhibition of tumour cell growth, NCI panel, 48 h
MDA-MB-435 = test system: MDA-MB-435
PC-3 prostate = test system: PC-3 prostate
MCF7 breast = test system: MCF7 breast
COLO 205 colon = test system: COLO 205 colon
NCI-H522 lung = test system: NCI-H522 lung
HS 578T breast = test system: HS 578T breast
T-47D breast = test system: T-47D breast
OVCAR-8 ovarian = test system: OVCAR-8 ovarian
OVCAR-3 ovarian = test system: OVCAR-3 ovarian
M19-MEL melanoma = test system: M19-MEL melanoma
SNB-78 CNS = test system: SNB-78 CNS
HOP-18 NSCLC = test system: HOP-18 NSCLC
DMS 273 small cell lung = test system: DMS 273 small cell lung

SMILES	TGI (MDA-MB-435) [µM]	TGI (PC-3 prostate) [µM]	TGI (MCF7 breast) [µM]	TGI (COLO 205 colon) [µM]	TGI (NCI-H522 lung) [µM]	TGI (HS 578T breast) [µM]	TGI (T-47D breast) [µM]	TGI (OVCAR-8 ovarian) [µM]	TGI (OVCAR-3 ovarian) [µM]	TGI (M19-MEL melanoma) [µM]	TGI (SNB-78 CNS) [µM]	TGI (HOP-18 NSCLC) [µM]	TGI (DMS 273 small cell lung) [µM]	GI50 (MDA-MB-435) [µM]	GI50 (PC-3 prostate) [µM]	GI50 (COLO 205 colon) [µM]	GI50 (NCI-H522 lung) [µM]	GI50 (HS 578T breast) [µM]	GI50 (T-47D breast) [µM]	GI50 (OVCAR-8 ovarian) [µM]
O=c1cc(O)c2ccccc2o1	> 100	> 100	> 100	> 100	> 100	> 100	> 100	> 100	> 100	–	–	–	–	–	–	–	–	–	–	–
CCOC(=O)NC	> 100	> 100	> 100	> 100	–	> 100	> 100	–	> 100	–	–	–	–	–	–	–	–	–	–	–
CC1(O)CC23CC1CCC2(C)C12CCCC(C)(C(=O)O1)C2CC3O (stereo not drawn)	> 100	> 100	> 100	> 100	> 100	> 100	> 100	> 100	–	–	–	–	–	–	–	–	–	–	–	–
COc1cc(O)c2c(c1)C(=O)c1cc(C)cc(O)c1C2=O	–	–	–	> 100	> 100	–	–	> 100	> 100	> 100	> 100	> 100	–	–	–	–	–	–	–	–
O=C1c2ccccc2C(=O)c2c1ccc(C(=O)O)c2-c1ccc2ccccc2c1	60	72.4	81.8	30.1	59.3	80.7	18.1	> 100	65.3	–	–	–	–	–	–	–	–	–	–	–
Cc1cc(=O)oc2c1cc(OCC(=O)OCCN1CCCCC1)c1occ(C)c12	–	–	–	–	–	–	–	> 100	> 100	> 100	> 100	> 100	> 100	–	–	–	–	–	–	–
Nc1nnc(N)n1NC(=O)C(=O)Nc1ccc([N+](=O)[O-])cc1	–	–	–	> 100	> 100	–	–	> 100	–	> 100	> 100	> 100	> 100	–	–	–	–	–	–	–
COc1cc(C)c2c(=O)c3c(oc2c1)C(=O)c1c(O)c(OC)cc(O)c1C3=O	–	–	9.34	> 43.4	9.17	–	–	0.551	2.4	4.04	7.2	3.9	1.8	–	–	–	–	–	–	–
Fc1ccc(-c2nnc3sc(COc4ccccc4Cl)nn23)cc1Cl	> 100	> 100	–	> 100	36.3	91.6	> 100	> 100	–	–	–	–	–	49.5	30.7	43.7	18	35.2	32.8	37.8
c1ccc2sc(SCN(C3CCCCC3)C3CCCCC3)nc2c1	> 100	> 100	–	–	> 100	> 100	49.5	> 100	> 100	–	–	–	–	–	–	–	–	–	–	–
O=C(O)C1=NNC(C(=O)O)=NN1	–	–	–	> 100	> 100	–	–	> 100	> 100	> 100	> 100	> 100	> 100	–	–	–	–	–	–	–
NC(=O)Nc1cc(O)ccc1N=Nc1ccc(S(=O)(=O)Nc2ccccn2)cc1	–	–	–	> 100	> 100	–	–	> 100	> 100	> 100	> 100	> 100	> 100	–	–	–	–	–	–	–
COc1c(Cl)cc(S(=O)O)cc1Cl	–	–	–	–	> 100	–	–	–	> 100	> 100	> 100	–	–	–	–	–	–	–	–	–
